Reference: PubChem BioAssay (NCI)
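48-hour exposure; five concentrations; linearly interpolated endpoints. Here, GI50 denotes the concentration required for 50% inhibition of growth. At the TGI there is no net growth.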

test system: MOLT-4 leukemia; test: NCI tumour cell line growth inhibition, 48 h

SMILES	TGI	GI50
N=c1oc2ccc([N+](=O)[O-])cc2cc1C(=O)NCc1ccccc1	> 100 µM	
COc1cc(C(=O)/C(C)=C/c2c[nH]c3ccccc23)cc(OC)c1OC	37 µM	0.00546 µM
CC(C)=CCCC(C)c1ccc(C)c2c1OCN(CC1CCNCC1)C2 (stereo unspecified)	43.3 µM	14.6 µM
O=C(/C=C/c1ccc(F)cc1)c1ccc(Cl)cc1Cl	63.9 µM	26.2 µM

test system: NCI-H522 lung; test: NCI tumour cell line growth inhibition, 48 h

SMILES	TGI	GI50
N=c1oc2ccc([N+](=O)[O-])cc2cc1C(=O)NCc1ccccc1	25.8 µM	
COc1cc(C(=O)/C(C)=C/c2c[nH]c3ccccc23)cc(OC)c1OC	0.00728 µM	0.00282 µM
CC(C)=CCCC(C)c1ccc(C)c2c1OCN(CC1CCNCC1)C2 (stereo unspecified)	28.6 µM	13.5 µM
COc1ccc(N2C(=O)CC(Cl)C2=O)cc1 (stereo unspecified)	36.5 µM	
O=C(/C=C/c1ccc(F)cc1)c1ccc(Cl)cc1Cl	> 100 µM	47.7 µM

test system: NCI-H23 lung; test: NCI tumour cell line growth inhibition, 48 h

SMILES	GI50	TGI
COc1cc(C(=O)/C(C)=C/c2c[nH]c3ccccc23)cc(OC)c1OC	0.00516 µM	> 100 µM
CC(C)=CCCC(C)c1ccc(C)c2c1OCN(CC1CCNCC1)C2 (stereo unspecified)	15.7 µM	33.6 µM
COc1ccc(N2C(=O)CC(Cl)C2=O)cc1 (stereo unspecified)		48.5 µM
O=C(/C=C/c1ccc(F)cc1)c1ccc(Cl)cc1Cl	37.2 µM	> 100 µM

test system: COLO 205 colon; test: NCI tumour cell line growth inhibition, 48 h

SMILES	TGI	GI50
N=c1oc2ccc([N+](=O)[O-])cc2cc1C(=O)NCc1ccccc1	40.5 µM	
COc1cc(C(=O)/C(C)=C/c2c[nH]c3ccccc23)cc(OC)c1OC	0.0159 µM	0.00354 µM
CC(C)=CCCC(C)c1ccc(C)c2c1OCN(CC1CCNCC1)C2 (stereo unspecified)	3.41 µM	1.86 µM
COc1ccc(N2C(=O)CC(Cl)C2=O)cc1 (stereo unspecified)	30 µM	
O=C(/C=C/c1ccc(F)cc1)c1ccc(Cl)cc1Cl	> 100 µM	44.2 µM

test system: UO-31 renal; test: NCI tumour cell line growth inhibition, 48 h

SMILES	TGI	GI50
N=c1oc2ccc([N+](=O)[O-])cc2cc1C(=O)NCc1ccccc1	35.8 µM	
COc1cc(C(=O)/C(C)=C/c2c[nH]c3ccccc23)cc(OC)c1OC	> 100 µM	0.00796 µM
CC(C)=CCCC(C)c1ccc(C)c2c1OCN(CC1CCNCC1)C2 (stereo unspecified)	27.3 µM	12.8 µM
COc1ccc(N2C(=O)CC(Cl)C2=O)cc1 (stereo unspecified)	33 µM	
O=C(/C=C/c1ccc(F)cc1)c1ccc(Cl)cc1Cl	> 100 µM	91.8 µM

test system: IGROV1 ovarian; test: NCI tumour cell line growth inhibition, 48 h

SMILES	TGI	GI50
N=c1oc2ccc([N+](=O)[O-])cc2cc1C(=O)NCc1ccccc1	30.9 µM	
COc1cc(C(=O)/C(C)=C/c2c[nH]c3ccccc23)cc(OC)c1OC	> 100 µM	0.00566 µM
CC(C)=CCCC(C)c1ccc(C)c2c1OCN(CC1CCNCC1)C2 (stereo unspecified)	32.2 µM	16.6 µM
COc1ccc(N2C(=O)CC(Cl)C2=O)cc1 (stereo unspecified)	> 100 µM	
O=C(/C=C/c1ccc(F)cc1)c1ccc(Cl)cc1Cl	> 100 µM	> 100 µM

test system: EKVX NSCLC; test: NCI tumour cell line growth inhibition, 48 h

SMILES	TGI	GI50
N=c1oc2ccc([N+](=O)[O-])cc2cc1C(=O)NCc1ccccc1	> 100 µM	
COc1cc(C(=O)/C(C)=C/c2c[nH]c3ccccc23)cc(OC)c1OC	> 100 µM	0.0053 µM
CC(C)=CCCC(C)c1ccc(C)c2c1OCN(CC1CCNCC1)C2 (stereo unspecified)	66.9 µM	20.7 µM
COc1ccc(N2C(=O)CC(Cl)C2=O)cc1 (stereo unspecified)	> 100 µM	
O=C(/C=C/c1ccc(F)cc1)c1ccc(Cl)cc1Cl	> 100 µM	89.9 µM

test system: SNB-19 CNS; test: NCI tumour cell line growth inhibition, 48 h

SMILES	TGI	GI50
N=c1oc2ccc([N+](=O)[O-])cc2cc1C(=O)NCc1ccccc1	> 100 µM	
COc1cc(C(=O)/C(C)=C/c2c[nH]c3ccccc23)cc(OC)c1OC	> 100 µM	0.00406 µM
CC(C)=CCCC(C)c1ccc(C)c2c1OCN(CC1CCNCC1)C2 (stereo unspecified)	29.4 µM	14 µM
COc1ccc(N2C(=O)CC(Cl)C2=O)cc1 (stereo unspecified)	> 100 µM	
O=C(/C=C/c1ccc(F)cc1)c1ccc(Cl)cc1Cl	77.8 µM	23.7 µM

test system: K-562 leukemia; test: NCI tumour cell line growth inhibition, 48 h

SMILES	TGI	GI50
N=c1oc2ccc([N+](=O)[O-])cc2cc1C(=O)NCc1ccccc1	> 100 µM	
COc1cc(C(=O)/C(C)=C/c2c[nH]c3ccccc23)cc(OC)c1OC	> 100 µM	0.00346 µM
CC(C)=CCCC(C)c1ccc(C)c2c1OCN(CC1CCNCC1)C2 (stereo unspecified)	8.44 µM	2.68 µM
COc1ccc(N2C(=O)CC(Cl)C2=O)cc1 (stereo unspecified)	17.5 µM	
O=C(/C=C/c1ccc(F)cc1)c1ccc(Cl)cc1Cl	> 100 µM	33.9 µM

test system: UACC-257 melanoma; test: NCI tumour cell line growth inhibition, 48 h

SMILES	TGI	GI50
N=c1oc2ccc([N+](=O)[O-])cc2cc1C(=O)NCc1ccccc1	38.2 µM	
COc1ccc(N2C(=O)CC(Cl)C2=O)cc1 (stereo unspecified)	29.7 µM	
O=C(/C=C/c1ccc(F)cc1)c1ccc(Cl)cc1Cl	> 100 µM	68.3 µM

test system: NCI-H226 lung; test: NCI tumour cell line growth inhibition, 48 h

SMILES	TGI	GI50
N=c1oc2ccc([N+](=O)[O-])cc2cc1C(=O)NCc1ccccc1	26.9 µM	
COc1cc(C(=O)/C(C)=C/c2c[nH]c3ccccc23)cc(OC)c1OC	> 100 µM	
CC(C)=CCCC(C)c1ccc(C)c2c1OCN(CC1CCNCC1)C2 (stereo unspecified)	33.8 µM	17.7 µM
COc1ccc(N2C(=O)CC(Cl)C2=O)cc1 (stereo unspecified)	46.4 µM	
O=C(/C=C/c1ccc(F)cc1)c1ccc(Cl)cc1Cl	> 100 µM	> 100 µM

test system: OVCAR-4 ovarian; test: NCI tumour cell line growth inhibition, 48 h

SMILES	TGI	GI50
N=c1oc2ccc([N+](=O)[O-])cc2cc1C(=O)NCc1ccccc1	63.5 µM	
COc1cc(C(=O)/C(C)=C/c2c[nH]c3ccccc23)cc(OC)c1OC	> 100 µM	0.0249 µM
CC(C)=CCCC(C)c1ccc(C)c2c1OCN(CC1CCNCC1)C2 (stereo unspecified)	30.7 µM	16 µM
COc1ccc(N2C(=O)CC(Cl)C2=O)cc1 (stereo unspecified)	34.3 µM	
O=C(/C=C/c1ccc(F)cc1)c1ccc(Cl)cc1Cl	> 100 µM	82.9 µM

test system: CCRF-CEM leukemia; test: NCI tumour cell line growth inhibition, 48 h

SMILES	TGI	GI50
N=c1oc2ccc([N+](=O)[O-])cc2cc1C(=O)NCc1ccccc1	> 100 µM	
COc1cc(C(=O)/C(C)=C/c2c[nH]c3ccccc23)cc(OC)c1OC	> 100 µM	0.00511 µM
O=C(/C=C/c1ccc(F)cc1)c1ccc(Cl)cc1Cl	52.8 µM	22.1 µM

test system: SR leukemia; test: NCI tumour cell line growth inhibition, 48 h

SMILES	TGI	GI50
N=c1oc2ccc([N+](=O)[O-])cc2cc1C(=O)NCc1ccccc1	> 100 µM	
COc1cc(C(=O)/C(C)=C/c2c[nH]c3ccccc23)cc(OC)c1OC		0.00333 µM
CC(C)=CCCC(C)c1ccc(C)c2c1OCN(CC1CCNCC1)C2 (stereo unspecified)	9.83 µM	2.79 µM
O=C(/C=C/c1ccc(F)cc1)c1ccc(Cl)cc1Cl	86.5 µM	26.4 µM

test system: SW-620 colon; test: NCI tumour cell line growth inhibition, 48 h

SMILES	TGI	GI50
N=c1oc2ccc([N+](=O)[O-])cc2cc1C(=O)NCc1ccccc1	39.5 µM	
COc1cc(C(=O)/C(C)=C/c2c[nH]c3ccccc23)cc(OC)c1OC	> 100 µM	0.00416 µM
CC(C)=CCCC(C)c1ccc(C)c2c1OCN(CC1CCNCC1)C2 (stereo unspecified)	23.1 µM	9.87 µM
COc1ccc(N2C(=O)CC(Cl)C2=O)cc1 (stereo unspecified)	35.2 µM	
